Species on record: Rattus norvegicus
Assay: Open TG-GATES - Regimen: Daily Repeat
Assay type: toxicity, organism-based, Sprague-Dawley
Set-up: regimen Daily Repeat, gender Male, age 6 weeks
Conditions: in vivo, po, 300 mg/kg, route gavage, dose level High; for APTT / Bas / Eos / Fbg / Hb / Ht / Lym / MCH / MCHC / MCV / Mono / Neu / PT / Plat / RBC / Ret / WBC: tissue Blood; for KIDNEY_L / KIDNEY_R / KIDNEY_TOTAL: tissue Kidney; for LIVER: tissue Liver; for A/G / ALP / ALT / AST / BUN / CRE / Ca / Cl / DBIL / GLC / IP / K / LDH / Na / PL / RALB / TBIL / TC / TG / TP / gamma-GTP: tissue Plasma

`CC[C@H]1[C@@H]2C[C@H]3[C@@H]4N(C)c5ccccc5[C@]45C[C@@H]([C@@H]2[C@H]5O)N3[C@@H]1O` [AJMALINE] gave a TERMINAL_BW (72 h, time 3 day) of 209.6 g, an APTT (72 h, time 3 day) of 16.2 s and a Bas (72 h, time 3 day) of 0%. The Eos (72 h, time 3 day) was 1%, the Fbg (72 h, time 3 day) was 214 mg/dL and the Hb (72 h, time 3 day) was 12.9 g/dL. It also gave a Ht (72 h, time 3 day) of 39.7%, a Lym (72 h, time 3 day) of 82.8% and an MCH (72 h, time 3 day) of 20.9 pg. The MCHC (72 h, time 3 day) was 32.4%, the MCV (72 h, time 3 day) was 64.4 fL and the Mono (72 h, time 3 day) was 7.2%. The Neu (72 h, time 3 day) was 9.6%, the PT (72 h, time 3 day) was 11.6 s and the Plat (72 h, time 3 day) was 121.1 x10_4/uL. The RBC (72 h, time 3 day) was 616.8 x10_4/ul, the Ret (72 h, time 3 day) was 7.8% and the WBC (72 h, time 3 day) was 133 x10_2/uL. It also gave a KIDNEY_L (72 h, time 3 day) of 0.9 g, a KIDNEY_R (72 h, time 3 day) of 0.9 g and a KIDNEY_TOTAL (72 h, time 3 day) of 1.9 g. The LIVER (72 h, time 3 day) was 10.3 g, the A/G (72 h, time 3 day) was 2 and the ALP (72 h, time 3 day) was 989.6 IU/L. For the same molecule, the ALT (72 h, time 3 day) was 44.2 IU/L, the AST (72 h, time 3 day) was 68.2 IU/L and the BUN (72 h, time 3 day) was 17 mg/dL. The CRE (72 h, time 3 day) was 0.5 mg/dL, the Ca (72 h, time 3 day) was 11.5 mg/dL and the Cl (72 h, time 3 day) was 100.4 meq/L. The DBIL (72 h, time 3 day) was 0.034 mg/dL, the GLC (72 h, time 3 day) was 200 mg/dL and the IP (72 h, time 3 day) was 8.3 mg/dL. For the same molecule, the K (72 h, time 3 day) was 4.4 meq/L, the LDH (72 h, time 3 day) was 123.2 IU/L and the Na (72 h, time 3 day) was 138.8 meq/L. For the same molecule, the PL (72 h, time 3 day) was 150 mg/dL, the RALB (72 h, time 3 day) was 3.6 g/dL and the TBIL (72 h, time 3 day) was 0.3 mg/dL. The TC (72 h, time 3 day) was 87.6 mg/dL, the TG (72 h, time 3 day) was 57.2 mg/dL and the TP (72 h, time 3 day) was 5.4 g/dL. It also gave a gamma-GTP (72 h, time 3 day) of 0.8 IU/L, a TERMINAL_BW ([…], time 7 day) of 244.7 g and a TERMINAL_BW ([…], time 14 day) of 293.9 g. The TERMINAL_BW ([…], time 28 day) was 349.6 g, the APTT ([…], time 7 day) was 16.4 s and the Bas ([…], time 7 day) was 0%. It also gave an Eos ([…], time 7 day) of 0.8%, a Fbg ([…], time 7 day) of 225.6 mg/dL and a Hb ([…], time 7 day) of 13.2 g/dL. For the same molecule, the Ht ([…], time 7 day) was 39.9%, the Lym ([…], time 7 day) was 81% and the MCH ([…], time 7 day) was 21.1 pg. The MCHC ([…], time 7 day) was 33.1%, the MCV ([…], time 7 day) was 63.6 fL and the Mono ([…], time 7 day) was 4.4%. It also gave a Neu ([…], time 7 day) of 13.4%, a PT ([…], time 7 day) of 11.3 s and a Plat ([…], time 7 day) of 142.3 x10_4/uL. It also gave an RBC ([…], time 7 day) of 627.2 x10_4/ul, a Ret ([…], time 7 day) of 7% and a WBC ([…], time 7 day) of 118.8 x10_2/uL. For the same molecule, the APTT ([…], time 14 day) was 16.3 s, the Bas ([…], time 14 day) was 0% and the Eos ([…], time 14 day) was 1%. The Fbg ([…], time 14 day) was 234.8 mg/dL, the Hb ([…], time 14 day) was 13.9 g/dL and the Ht ([…], time 14 day) was 42%. The Lym ([…], time 14 day) was 83.2%, the MCH ([…], time 14 day) was 20.8 pg and the MCHC ([…], time 14 day) was 33.1%. The MCV ([…], time 14 day) was 62.7 fL, the Mono ([…], time 14 day) was 4.2% and the Neu ([…], time 14 day) was 11.8%. It also gave a PT ([…], time 14 day) of 11.2 s, a Plat ([…], time 14 day) of 140.6 x10_4/uL and an RBC ([…], time 14 day) of 670 x10_4/ul. It also gave a Ret ([…], time 14 day) of 5.6%, a WBC ([…], time 14 day) of 139.9 x10_2/uL and an APTT ([…], time 28 day) of 17.3 s. It also gave a Bas ([…], time 28 day) of 0%, an Eos ([…], time 28 day) of 1.2% and a Fbg ([…], time 28 day) of 244.2 mg/dL. It also gave a Hb ([…], time 28 day) of 15.3 g/dL, a Ht ([…], time 28 day) of 45.1% and a Lym ([…], time 28 day) of 80.8%. For the same molecule, the MCH ([…], time 28 day) was 19.8 pg, the MCHC ([…], time 28 day) was 33.9% and the MCV ([…], time 28 day) was 58.3 fL. It also gave a Mono ([…], time 28 day) of 5%, a Neu ([…], time 28 day) of 13.4% and a PT ([…], time 28 day) of 11.3 s. It also gave a Plat ([…], time 28 day) of 141.8 x10_4/uL, an RBC ([…], time 28 day) of 772.4 x10_4/ul and a Ret ([…], time 28 day) of 2.8%. It also gave a WBC ([…], time 28 day) of 147.5 x10_2/uL, a KIDNEY_L ([…], time 7 day) of 1.1 g and a KIDNEY_R ([…], time 7 day) of 1.1 g. For the same molecule, the KIDNEY_TOTAL ([…], time 7 day) was 2.2 g, the KIDNEY_L ([…], time 14 day) was 1.2 g and the KIDNEY_R ([…], time 14 day) was 1.2 g. It also gave a KIDNEY_TOTAL ([…], time 14 day) of 2.4 g, a KIDNEY_L ([…], time 28 day) of 1.3 g and a KIDNEY_R ([…], time 28 day) of 1.4 g. The KIDNEY_TOTAL ([…], time 28 day) was 2.7 g, the LIVER ([…], time 7 day) was 11.7 g and the LIVER ([…], time 14 day) was 13.4 g. The LIVER ([…], time 28 day) was 15.4 g, the A/G ([…], time 7 day) was 1.9 and the ALP ([…], time 7 day) was 944.4 IU/L. It also gave an ALT ([…], time 7 day) of 37 IU/L, an AST ([…], time 7 day) of 57.8 IU/L and a BUN ([…], time 7 day) of 16.8 mg/dL. It also gave a CRE ([…], time 7 day) of 0.5 mg/dL, a Ca ([…], time 7 day) of 11.6 mg/dL and a Cl ([…], time 7 day) of 103 meq/L. It also gave a DBIL ([…], time 7 day) of 0.026 mg/dL, a GLC ([…], time 7 day) of 189.8 mg/dL and an IP ([…], time 7 day) of 8.3 mg/dL. The K ([…], time 7 day) was 4.6 meq/L, the LDH ([…], time 7 day) was 98.8 IU/L and the Na ([…], time 7 day) was 141.4 meq/L. The PL ([…], time 7 day) was 142 mg/dL, the RALB ([…], time 7 day) was 3.5 g/dL and the TBIL ([…], time 7 day) was 0.4 mg/dL. The TC ([…], time 7 day) was 80.8 mg/dL, the TG ([…], time 7 day) was 56.8 mg/dL and the TP ([…], time 7 day) was 5.4 g/dL. For the same molecule, the gamma-GTP ([…], time 7 day) was 1.2 IU/L, the A/G ([…], time 14 day) was 2.1 and the ALP ([…], time 14 day) was 849.4 IU/L. The ALT ([…], time 14 day) was 35.4 IU/L, the AST ([…], time 14 day) was 62.2 IU/L and the BUN ([…], time 14 day) was 17.8 mg/dL. The CRE ([…], time 14 day) was 0.5 mg/dL, the Ca ([…], time 14 day) was 11.4 mg/dL and the Cl ([…], time 14 day) was 102.6 meq/L. For the same molecule, the DBIL ([…], time 14 day) was 0.022 mg/dL, the GLC ([…], time 14 day) was 201.8 mg/dL and the IP ([…], time 14 day) was 8.2 mg/dL. For the same molecule, the K ([…], time 14 day) was 4.8 meq/L, the LDH ([…], time 14 day) was 101.8 IU/L and the Na ([…], time 14 day) was 140 meq/L. The PL ([…], time 14 day) was 142.4 mg/dL, the RALB ([…], time 14 day) was 3.7 g/dL and the TBIL ([…], time 14 day) was 0.5 mg/dL. It also gave a TC ([…], time 14 day) of 73.6 mg/dL, a TG ([…], time 14 day) of 82 mg/dL and a TP ([…], time 14 day) of 5.5 g/dL. It also gave a gamma-GTP ([…], time 14 day) of 1.6 IU/L, an A/G ([…], time 28 day) of 1.8 and an ALP ([…], time 28 day) of 589.2 IU/L. The ALT ([…], time 28 day) was 38.4 IU/L, the AST ([…], time 28 day) was 61.8 IU/L and the BUN ([…], time 28 day) was 19 mg/dL. For the same molecule, the CRE ([…], time 28 day) was 0.7 mg/dL, the Ca ([…], time 28 day) was 11 mg/dL and the Cl ([…], time 28 day) was 103.2 meq/L. It also gave a DBIL ([…], time 28 day) of 0.036 mg/dL, a GLC ([…], time 28 day) of 187.2 mg/dL and an IP ([…], time 28 day) of 7.3 mg/dL. For the same molecule, the K ([…], time 28 day) was 4.8 meq/L, the LDH ([…], time 28 day) was 88.4 IU/L and the Na ([…], time 28 day) was 140.8 meq/L. The PL ([…], time 28 day) was 172.8 mg/dL, the RALB ([…], time 28 day) was 3.9 g/dL and the TBIL ([…], time 28 day) was 0.3 mg/dL. The TC ([…], time 28 day) was 96.8 mg/dL, the TG ([…], time 28 day) was 73.6 mg/dL and the TP ([…], time 28 day) was 6.1 g/dL. For the same molecule, the gamma-GTP ([…], time 28 day) was 1.4 IU/L.
